# Where “and” joins values, the source holds several entries; their conditions need not be identical. Identical values can stand only once.
# Tests used:
# Format in all cases: cell-based, human
# [1] = system: 22Rv1 homozygous CDK7-D97N CL3 cells; experiment: IncuCyte confluency growth, 22Rv1 homozygous CDK7-D97N CL3
# Method: (§1) To determine the IC50 of drug treatments on growth, cells were seeded in 96-well culture plates. Two days after seeding, the cells were treated with increasing concentrations of drugs and incubated for 4 days. Cell number was determined using the SRB assay (Skehan et al, [1990]), and IC50 values were calculated using non-linear regression curve fitting in GraphPad Prism v10. For all other growth experiments, cells were seeded into 96-well plates, and appropriate drugs were added 2 days after seeding. Cells were then incubated in an IncuCyte Zoom live-cell imager, with cell confluency measured every 6 h. Cell doubling times were determined by non-linear curve fitting (exponential growth equation) in GraphPad Prism v10.
# 22Rv1 cells = experiment: IncuCyte confluency growth, 22Rv1
# Method: as §1
# [2] = system: PolII and CDK2 phosphorylation in MCF7-CDK7-D97N cells; experiment: Immunoblotting of CDK7 targets, MCF7-CDK7-D97N; conditions: 24 h, immunoblot
# Method: Whole-cell lysates were prepared in RIPA buffer (Sigma-Aldrich), supplemented with protease and phosphatase inhibitor cocktails (Roche). Protein sample concentrations were determined using the Pierce BCA Protein Assay kit (ThermoFisher Scientific). […] PolII CTD phosphorylation antibodies (P-Ser2 (ab5095) and P-Ser5 (ab5131), used at 1:10,000 dilution), as well as total PolII (ab817; 1:2000 dilution) and β-actin (ab6276; 1:100,000 dilution) were purchased from Abcam.
compound,measurement,setting,value
CN(C)C/C=C/C(=O)Nc1ccc(C(=O)N[C@@]2(C)CCC[C@@H](Nc3ncc(Cl)c(-c4c[nH]c5ccccc45)n3)C2)nc1 [SY-1365],% Confluency,"[1]; 80nM SY1365, CDK7D97N CL3, 0 hours",10.64% and 16.42% and 15.20%
same,% Confluency,"[1]; 80nM SY1365, CDK7D97N CL3, 6 hours",12.17% and 18.19% and 16.81%
same,% Confluency,"[1]; 80nM SY1365, CDK7D97N CL3, 12 hours",12.25% and 16.05% and 14.62%
same,% Confluency,"[1]; 80nM SY1365, CDK7D97N CL3, 18 hours",11.21% and 14.01% and 12.61%
same,% Confluency,"[1]; 80nM SY1365, CDK7D97N CL3, 24 hours",9.91% and 12.68% and 11.43%
same,% Confluency,"[1]; 80nM SY1365, CDK7D97N CL3, 30 hours",9.03% and 11.88% and 10.71%
same,% Confluency,"[1]; 80nM SY1365, CDK7D97N CL3, 36 hours",8.55% and 11.34% and 10.26%
same,% Confluency,"[1]; 80nM SY1365, CDK7D97N CL3, 42 hours",8.35% and 11.02% and 9.94%
same,% Confluency,"[1]; 80nM SY1365, CDK7D97N CL3, 48 hours",8.30% and 10.78% and 9.70%
same,% Confluency,"[1]; 80nM SY1365, CDK7D97N CL3, 54 hours",8.19% and 10.49% and 9.48%
same,% Confluency,"[1]; 80nM SY1365, CDK7D97N CL3, 60 hours",8.11% and 10.33% and 9.30%
same,% Confluency,"[1]; 80nM SY1365, CDK7D97N CL3, 66 hours",8.06% and 10.08% and 9.17%
same,% Confluency,"[1]; 80nM SY1365, CDK7D97N CL3, 72 hours",8.00% and 9.91% and 9.02%
same,% Confluency,"[1]; 80nM SY1365, CDK7D97N CL3, 78 hours",7.89% and 9.76% and 8.94%
same,% Confluency,"[1]; 80nM SY1365, CDK7D97N CL3, 84 hours",7.83% and 9.66% and 8.79%
same,% Confluency,"[1]; 80nM SY1365, CDK7D97N CL3, 90 hours",7.73% and 9.55% and 8.72%
same,% Confluency,"[1]; 80nM SY1365, CDK7D97N CL3, 96 hours",7.64% and 9.51% and 8.65%
same,% Confluency,"[1]; 80nM SY1365, CDK7D97N CL3, 114 hours",7.42% and 9.25% and 8.52%
same,% Confluency,"[1]; 80nM SY1365, CDK7D97N CL3, 120 hours",7.37% and 9.31% and 8.48%
same,% Confluency,"[1]; 80nM SY1365, CDK7D97N CL3, 126 hours",7.26% and 9.19% and 8.45%
same,% Confluency,"[1]; 80nM SY1365, CDK7D97N CL3, 132 hours",7.22% and 9.15% and 8.43%
same,% Confluency,"[1]; 80nM SY1365, CDK7D97N CL3, 138 hours",7.16% and 9.12% and 8.33%
same,% Confluency,"[1]; 80nM SY1365, CDK7D97N CL3, 144 hours",7.11% and 8.98% and 8.32%
same,Growth inhibition over time,"[1]; 22Rv1 homozygous CDK7-D97N clone, IncuCyte confluency, samuraciclib at 1.35 µM",potently growth inhibited
same,% Confluency,"22Rv1 cells; 80nM SY1365, 22Rv1, 0 hours",11.42% and 19.49% and 18.80%
same,% Confluency,"22Rv1 cells; 80nM SY1365, 22Rv1, 6 hours",11.80% and 20.40% and 19.49%
same,% Confluency,"22Rv1 cells; 80nM SY1365, 22Rv1, 12 hours",10.21% and 17.43% and 16.82%
same,% Confluency,"22Rv1 cells; 80nM SY1365, 22Rv1, 18 hours",9.13% and 15.66% and 15.15%
same,% Confluency,"22Rv1 cells; 80nM SY1365, 22Rv1, 24 hours",8.54% and 14.77% and 14.37%
same,% Confluency,"22Rv1 cells; 80nM SY1365, 22Rv1, 30 hours",8.21% and 14.28% and 13.85%
same,% Confluency,"22Rv1 cells; 80nM SY1365, 22Rv1, 36 hours",8.00% and 13.79% and 13.42%
same,% Confluency,"22Rv1 cells; 80nM SY1365, 22Rv1, 42 hours",7.74% and 13.41% and 13.03%
same,% Confluency,"22Rv1 cells; 80nM SY1365, 22Rv1, 48 hours",7.60% and 13.19% and 12.71%
same,% Confluency,"22Rv1 cells; 80nM SY1365, 22Rv1, 54 hours",7.42% and 12.81% and 12.32%
same,% Confluency,"22Rv1 cells; 80nM SY1365, 22Rv1, 60 hours",7.30% and 12.50% and 12.14%
same,% Confluency,"22Rv1 cells; 80nM SY1365, 22Rv1, 66 hours",7.19% and 12.29% and 11.85%
same,% Confluency,"22Rv1 cells; 80nM SY1365, 22Rv1, 72 hours",7.07% and 12.06% and 11.63%
same,% Confluency,"22Rv1 cells; 80nM SY1365, 22Rv1, 78 hours",6.98% and 11.84% and 11.40%
same,% Confluency,"22Rv1 cells; 80nM SY1365, 22Rv1, 84 hours",6.88% and 11.65% and 11.26%
same,% Confluency,"22Rv1 cells; 80nM SY1365, 22Rv1, 90 hours",6.85% and 11.59% and 11.21%
same,% Confluency,"22Rv1 cells; 80nM SY1365, 22Rv1, 96 hours",6.73% and 11.35% and 10.98%
same,% Confluency,"22Rv1 cells; 80nM SY1365, 22Rv1, 114 hours",6.60% and 11.05% and 10.79%
same,% Confluency,"22Rv1 cells; 80nM SY1365, 22Rv1, 120 hours",6.58% and 10.92% and 10.70%
same,% Confluency,"22Rv1 cells; 80nM SY1365, 22Rv1, 126 hours",6.55% and 10.80% and 10.69%
same,% Confluency,"22Rv1 cells; 80nM SY1365, 22Rv1, 132 hours",6.55% and 10.73% and 10.58%
same,% Confluency,"22Rv1 cells; 80nM SY1365, 22Rv1, 138 hours",6.46% and 10.70% and 10.57%
same,% Confluency,"22Rv1 cells; 80nM SY1365, 22Rv1, 144 hours",6.45% and 10.59% and 10.48%
same,Growth inhibition over time,"22Rv1 cells; 22Rv1, IncuCyte confluency",potently growth inhibited
same,Inhibition of PolII and CDK2 phosphorylation,[2],maintained

# Reference: paper PMC12528448, “Resistance to CDK7 inhibitors directed by acquired mutation of a conserved residue in cancer cells” (The EMBO Journal, 2025)
